{
  "source": "patent US20230087994A1",
  "about": "“TARGETED BIFUNCTIONAL DEGRADERS” (YALE UNIVERSITY, priority 2019, published 2023)",
  "key": {"[1]": {"assay": "Pharmacokinetics of MIF-GN3 in male nude mice", "format": "in vivo", "details": "one mpk dose", "text": "The ability of MIF-GN3 to mediate the depletion of injected human MIF from serum in mice was studied. First, the pharmacokinetics of the bifunctional molecule were investigated."}, "human MIF [2]": {"molecular_target": "T1, human MIF (Homo sapiens, UniProt P14174)", "T1 sequence (P14174 2-115 limits assumed)": "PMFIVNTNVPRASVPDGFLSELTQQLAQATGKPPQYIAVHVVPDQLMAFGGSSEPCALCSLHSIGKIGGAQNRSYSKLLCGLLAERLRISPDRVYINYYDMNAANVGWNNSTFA", "assay": "Depletion of injected recombinant human MIF from serum in mice", "format": "in vivo", "design": "injected into mice", "details": "for depletion of human MIF protein from serum: 10 mpk, 30 minutes, FIG. 135", "protocol": "In vivo human MIF depletion experiments were undertaken to determine whether MIF-GN3 can mediate the depletion of injected recombinant human MIF from serum in mice. Mice were injected with five μg of the human MIF protein. In this experiment, one group of mice was also injected with a single 10 mpk dose of MIF-GN3 along with human MIF protein. It was observed that after four hours, the average level of human MIF in serum in the PBS-treated mice was 1.76 ng/mL (FIG. 134). In mice treated with 10 mpk MIF-GN3, however, the concentration of human MIF in serum was 0.68 ng/mL. One day after the initial injection, human MIF levels had reached background levels for both conditions. […] It was hypothesized that, due to the short half-life of human MIF in serum, investigating human MIF levels at earlier time points may be more informative.\nNext, an experiment was performed to determine whether MIF-GN3 could enhance MIF clearance at time points earlier than four hours. Mice were coinjected with recombinant human MIF and 10 mpk MIF-GN3 via either i.p. or i.v. routes. For the PBS control arms, human MIF was injected with PBS. It was observed that in the absence of MIF-GN3, there was a spike in huMIF levels in circulation after 30 minutes (FIG. 135). In the presence of MIF-GN3, however, levels of MIF protein remained low at 30 minutes and no spike in its concentration was observed. By two hours, the levels of human MIF in circulation decreased to background levels. […] In a further experiment, whether an inhibitor of the MIF protein (3w) is able to mediate the protein's depletion from serum was determined. A bifunctional molecule that mediates the depletion of α-DNP antibody from serum was also assayed as a negative control. Neither of these molecules was expected to mediate the formation of a ternary complex between human MIF protein and ASGPR.\n(§1) In order to confirm that mice injected with one or ten mpk MIF-GN3 had received the injection, and that the observed stability of MIF concentrations in MIF-GN3 treated mice was not the result of injection error, 200 μg of α-DNP antibody was coinjected with the MIF protein in this experiment. […] An investigation of the ability of MIF-GN3 to mediate the depletion of endogenous mouse MIF in vivo was next undertaken. Mice were treated with either PBS or 10 mpk of MIF-GN3. […] One possible explanation for this finding is that MIF protein may be synthesized rapidly, and any increase in degradation mediated by MIF-GN3 may not be of a large enough magnitude to impact the protein's level in serum."}, "human MIF [3]": {"molecular_target": "T1, human MIF", "assay": "Depletion of human MIF from cell culture supernatant (sandwich ELISA)", "format": "cell-based", "design": "host or cells: exogenous protein added to cell culture", "details": "for removal of MIF from supernatant: after 48 hours", "protocol": "The ability of bifunctional MIF-binding molecules to mediate the depletion of human MIF from cell culture was investigated. In these assays, human MIF was present at a concentration of 100 nM, and a sandwich ELISA assay was utilized to measure the concentration of human MIF remaining in the cell culture supernatant. The closely related bifunctional molecules MIF-GN3, MIF-PEG2-GN3, and MIF-PEG4-GN3 were used, as well as the structurally dissimilar molecule MIF-NVS-PEG3-GN3. […] Based on the ease of its synthesis and its efficacy in this experiment, MIF-GN3 was utilized for further studies. It was next investigated whether the MIF inhibitor 3w mediates MIF depletion from cell culture supernatant. […] When cells were treated with 3w, no depletion of exogenous MIF protein was observed after 24 hours (FIG. 128B)."}, "mouse MIF": {"molecular_target": "T2, mouse MIF (Mus musculus, UniProt P34884)", "T2 construct": "mediate the depletion of endogenous mouse MIF in vivo; from tissue; host or cells: mouse serum (in vivo)", "assay": "Depletion of endogenous mouse MIF in vivo", "design": "species or system mice", "details": "10 mpk, single dose; FIG. 137", "protocol": "as §1"}, "PC3 cells": {"system": "PC3 cells", "assay": "Human prostate cancer PC3 tumor growth in mice", "format": "in vivo", "protocol": "The ability of MIF-GN3 to mediate the depletion of MIF in a therapeutically relevant disease model was investigated. […] An experiment was conducted to determine whether the bifunctional molecule MIF-GN3 can deplete sufficient human MIF from serum to slow PC3 tumor growth. Mice were injected with an aliquot of PC3 cells, and the size of the resultant tumors as well as the levels of human MIF in serum were monitored over five weeks. […] Five weeks after the initial PC3 cell injection, the first of the mice reached maximal tumor size ([…]) and was sacrificed (FIG. 138). […] The decrease in human MIF levels mediated by MIF-GN3 is consistent with a mechanism of action in which MIF-GN3 mediates the depletion and degradation of circulating MIF protein. While the α-MIF antibody would not necessarily be expected to decrease the levels of human MIF, it is possible that the antibody mediates MIF neutralization in a manner which masks its signal as determined by ELISA. Alternatively, the α-MIF antibody may mediate depletion or degradation of huMIF by some endocytic mechanism. Another possible explanation is that the α-MIF antibody decrease serum levels of active human MIF to such an extent at early time points that PC3 cells proliferate much more slowly, and therefore fewer cells are actively secreting human MIF.\nMice were sacrificed when their tumor volumes reached 1000 mm^3. […] At this same time point, less than 25% of the mice in any other arm had survived."}, "HepG2 cells [4]": {"system": "HepG2 cells", "assay": "MIF-GN3-mediated endocytosis of fluorescently labeled human MIF by HepG2 cells", "protocol": "Human MIF protein was fluorescently labeled with Alexa 488 NHS ester, then incubated with HepG2 cells in the presence of varying levels of MIF-GN3.\nNext, inhibitors of various endocytic pathways were utilized to determine if MIF-GN3 mediates MIF endocytosis in a manner consistent with ASGPR (FIG. 132)."}, "HepG2 cells [5]": {"system": "HepG2 cells", "assay": "Subcellular localization of endocytosed MIF protein in HepG2 cells", "format": "cell-based, human", "details": "12 hours; FIG. 133", "protocol": "In order to investigate the subcellular localization of endocytosed MIF protein, colocalization studies were performed in HepG2 cells. After 12 hours of MIF-GN mediated endocytosis, several punctae displaying MIF-derived fluorescence were present in each cell."}},
  "data": [
    {"smiles": "CC(=O)N[C@H]1[C@H](OCCOCCOCCNC(=O)CCOCC(COCCC(=O)NCCOCCOCCO[C@@H]2O[C@H](CO)[C@H](O)[C@H](O)[C@H]2NC(C)=O)(COCCC(=O)NCCOCCOCCO[C@@H]2O[C@H](CO)[C@H](O)[C@H](O)[C@H]2NC(C)=O)NC(=O)CNC(=O)CCCOc2ccc3nc(-c4cn(-c5ccc(O)c(F)c5)nn4)ccc3c2)O[C@H](CO)[C@H](O)[C@@H]1O", "note": "[MIF-GN3]", "values": [
      {"measurement": "half-life in serum", "setting": "[1]", "value": 25.8, "unit": "min"},
      {"measurement": "maximum plasma concentration", "setting": "[1]", "value": 586.87, "unit": "ng/mL"},
      {"measurement": "time of maximum plasma concentration", "setting": "[1]", "value": 15, "unit": "min"},
      {"measurement": "depletion of human MIF protein from serum", "setting": "human MIF [2]; i.p.", "value": "significant depletion"},
      {"measurement": "depletion of human MIF protein from serum", "setting": "human MIF [2]; i.v.", "value": "significant depletion"},
      {"measurement": "concentration of human MIF in serum", "setting": "human MIF [2]; four hours, single 10 mpk dose, five μg human MIF (PBS 1.76 ng/mL; difference not significant), FIG. 134", "value": 0.68, "unit": "ng/mL"},
      {"measurement": "human MIF levels in serum", "setting": "human MIF [2]; one mpk, 40 and 60 minute time points, FIG. 136", "value": "significant decrease"},
      {"measurement": "concentration of human MIF in serum", "setting": "human MIF [2]; ten mpk, 40 and 60 minutes, FIG. 136", "value": "significant decreses"},
      {"measurement": "removal of MIF from supernatant", "setting": "human MIF [3]; 200 nM", "value": 56.0, "unit": "%"},
      {"measurement": "removal of MIF from supernatant", "setting": "human MIF [3]; 1 μM", "value": 67.0, "unit": "%"},
      {"measurement": "depletion of human MIF from cell culture supernatant", "setting": "human MIF [3]; human MIF 100 nM, 24 hours, FIG. 128A", "value": "effective at mediating the depletion of human MIF"},
      {"measurement": "mouse MIF concentrations in serum", "setting": "mouse MIF", "value": "No significant decrease"},
      {"measurement": "PC3 tumor growth", "setting": "PC3 cells; 1 mpk", "value": "delay in tumor growth"},
      {"measurement": "PC3 tumor growth", "setting": "PC3 cells; 10 mpk", "value": "not found to decrease tumor growth"},
      {"measurement": "human MIF protein in serum", "setting": "PC3 cells; MIF-GN3 at 1 mpk, FIG. 139", "value": "decreased levels of human MIF protein"},
      {"measurement": "survival", "setting": "PC3 cells; eight weeks after the initial PC3 cell injection, MIF-GN3 at 1 mpk, FIG. 140", "value": 80, "unit": "%"},
      {"measurement": "fluorescence relative to cells not treated with bifunctional molecule", "setting": "HepG2 cells [4]; 10 nM MIF protein, 200 nM MIF-GN3, FIG. 131", "value": 4, "unit": "fold"},
      {"measurement": "MIF uptake compared to lower concentrations", "setting": "HepG2 cells [4]; 5.00 μM MIF-GN3, 100 nM MIF protein", "value": "slight decrease in MIF uptake"},
      {"measurement": "MIF-GN3 concentration of maximal intracellular fluorescence", "setting": "HepG2 cells [4]; highest concentration investigated, FIG. 130", "value": 1.0, "unit": "µM"},
      {"measurement": "colocalization of MIF protein with LAMP2", "setting": "HepG2 cells [5]", "value": "near-complete colocalization"},
      {"measurement": "overlap of MIF punctae with EEA1", "setting": "HepG2 cells [5]", "value": "did not overlap"}
    ]}
  ]
}
